Laboratory results taken from patent US8846951B2 (AbbVie Inc., priority 2009, dated 2014).
Read-outs that look alike come from different tables or passages of the source.

What was measured:
[1] = target: T1, 5HT2B receptors (Homo sapiens, UniProt P41595); assay: Human 5-HT2B functional high throughput screening assay in CHO-K1 cells (calcium flux); format: cell-based
T1 construct: expressed in transfected cells; host or cells: CHO-K1 cells
In short: (§1)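 Agonism was measured as FLIPR fluorescence increase (480/530 nm, 25° C) with Ca4 dye and 2.5 mM probenecid, in serum-starved CHO-K1 lines overexpressing human 5-HT2C or 5-HT2B. Six-point 1:10 dilutions from 10 μM (0.2% DMSO final) were fitted by 4-parameter logistics. Responses were normalised to serotonin to give EC50 and % Emax.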

[2] = target: T2, h-5-HT6 receptor (Homo sapiens, UniProt P50406); assay: Human 5-HT6 receptor radioligand binding assay (HEK293 membranes, [3H]-LSD)
T2 construct: expressed in transfected cells; host or cells: HEK293 cells (membranes)
T2 sequence (P50406 whole entry): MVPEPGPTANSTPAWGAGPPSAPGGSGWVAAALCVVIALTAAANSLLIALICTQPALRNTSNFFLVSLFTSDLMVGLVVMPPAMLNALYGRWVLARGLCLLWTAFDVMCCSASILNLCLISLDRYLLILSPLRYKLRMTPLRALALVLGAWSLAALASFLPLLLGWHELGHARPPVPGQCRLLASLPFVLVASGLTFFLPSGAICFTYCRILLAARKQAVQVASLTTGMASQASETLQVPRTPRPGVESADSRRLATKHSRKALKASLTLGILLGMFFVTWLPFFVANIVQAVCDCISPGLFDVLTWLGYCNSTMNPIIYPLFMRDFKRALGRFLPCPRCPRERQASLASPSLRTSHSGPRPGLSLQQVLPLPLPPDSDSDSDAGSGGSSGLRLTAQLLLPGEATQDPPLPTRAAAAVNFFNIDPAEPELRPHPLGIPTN
Procedure: (v) Human 5-HT6 Receptor Radioligand Binding Assay
Preparation of Membranes by Ultrasonic Treatment and Differential Centrifugation
Cells from stable clonal cell lines expressing the corresponding receptor (5-HT6) were washed with PBS (without Ca^++, Mg^++) and harvested in PBS with 0.02% EDTA. The cells were collected by centrifugation at 500 g for 10 minutes at 4° C., washed with PBS and centrifuged (500 g, 10 minutes at 4° C.). The pellets were stored at −80° C. until use. For membrane preparation, the thawed cell pellet was resuspended in ice-cold sucrose buffer (0.25 M sucrose, 10 mM HEPES (pH 7.4), 1 mM phenylmethylsulfonyl fluoride (PMSF) in DMSO, 5 μg/ml Pepstatin-A, 3 mM EDTA, 0.025% Bacitracin) and homogenized with a Branson Sonifier W-250 (Settings: Timer 4; Output Control 3; Duty Cycle constant; 2 to 3 cycles). Cell disruption was checked with the aid of a microscope. Remaining unbroken cells were pelleted at 1,000 g for 10 minutes at 4° C. The sucrose buffer supernatant was then centrifuged at 60,000 g for 1 hour at 4° C. (Beckman Ultracentrifuge XL 80). The pellet was resuspended in 30 mL of ice-cold Tris buffer (20 mM TRIS (pH 7.4), 5 μg/mL Pepstatin A, 0.1 mM PMSF, 3 mM EDTA) by pipetting through a 10 mL serological pipette and centrifuged for 1 hour at 4° C. at 60,000 g. A final resuspension was performed in a small volume of ice-cold Tris buffer (see above) by pressing through a serological pipette followed by ultrasonic treatment with a Branson Sonifier W-250 (Settings: Timer 1; Output Control 3; Duty Cycle constant; 1 cycle). Protein concentration was determined (BCA-Kit; Pierce) and aliquots stored at −80° C. or in liquid nitrogen for long-term storage.
Receptor Binding Experiments
All receptor binding experiments were carried out in the corresponding assay buffer in a total volume of 200 μL in the presence of various concentrations of test compound (10^−5 M to 10^−9 M, tenfold serial dilution, duplicate determinations). The assays were terminated by filtration on polyethylenimine (PEI 0.1% or 0.3%) presoaked Packard Unifilter Plates (GF/C or GF/B) with a Tomtec MachIII U 96 well-plate harvester. After the plates had been dried for 2 hours at 55° C. in a drying chamber scintillation cocktail (BetaPlate Scint; PerkinElmer) was added. Radioactivity was measured in a Microbeta Trilux two hours after the addition of the scintillation mixture.
5-HT6 Receptor Binding Assay
HEK293 cells stably expressing the h-5-HT6 receptor (NCBI Reference Sequence XM 001435) were cultured in RPMI1640 medium supplemented with 25 mM HEPES, 10% fetal calf serum and 1-2 mM glutamine. The membrane preparation was performed as described above. […] On the day of the assay, the membranes were thawed, diluted in assay buffer (50 mM Tris-HCl, 5 mM CaCl2, 0.1% ascorbic acid, 10 μM pargyline, pH 7.4) to a concentration of 8 μg protein/assay and homogenized by gentle vortexing. […] Non-specific binding was defined with 1 μM methiothepin. The binding reaction was carried out for 3.5 hours at room temperature. During the incubation, the plates were shaken on a plate shaker at 100 rpm and terminated by filtration on Packard Unifilter GF/C (0.1% PEI) plates, followed by 2 wash cycles with ice-cold 50 mM Tris-HCl, 5 mM CaCl2.
Data derived from liquid scintillation counting were analyzed by iterative non-linear regression analysis with the use of the Statistical Analysis System (SAS): a program similar to “LIGAND” as described by Munson and Rodbard (Anal. Biochem. 1980, 107, 220-239). Fitting was performed according to formulae described by Feldman (Anal. Biochem. 1972, 48, 317-338). IC50 and Ki values were expressed as geometrical mean.

[3] = target: T3, 5HT2C receptors (Homo sapiens, UniProt P28335); assay: Human 5-HT2C functional high throughput screening assay in CHO-K1 cells (calcium flux); format: cell-based; design: expressed in transfected cells; host or cells: CHO-K1 cells
T3 sequence (P28335 33-458): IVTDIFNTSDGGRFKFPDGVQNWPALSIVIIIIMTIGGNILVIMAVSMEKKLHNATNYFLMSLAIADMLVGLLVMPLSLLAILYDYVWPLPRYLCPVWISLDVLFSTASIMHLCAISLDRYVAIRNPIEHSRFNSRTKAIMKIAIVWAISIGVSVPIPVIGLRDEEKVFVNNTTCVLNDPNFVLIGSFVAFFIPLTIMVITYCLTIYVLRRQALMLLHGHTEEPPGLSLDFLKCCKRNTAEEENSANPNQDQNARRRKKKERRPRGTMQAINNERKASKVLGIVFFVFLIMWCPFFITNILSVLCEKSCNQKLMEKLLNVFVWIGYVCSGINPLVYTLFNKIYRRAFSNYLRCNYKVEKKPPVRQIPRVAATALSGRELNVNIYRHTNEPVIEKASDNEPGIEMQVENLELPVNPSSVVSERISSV
In short: as §1

[4] = target: T4, human serotonin 5-HT2c receptor (Homo sapiens, UniProt P28335); assay: Human 5-HT2C receptor radioligand binding assay (agonist site, [125I]DOI); conditions: 5-HT2c agonist site; transfected CHO cell membranes; 0.2 nM [125I](±)DOI
T4 construct: expressed in transfected cells; host or cells: CHO cells (membrane homogenates)
T4 sequence (P28335 33-458): T3 sequence (P28335 33-458)
Procedure: (i) Human 5-HT2C Receptor Radioligand Binding Assay
Affinity of compounds for the agonist site of the […], receptor in transfected CHO cells was determined in a radioligand binding assay essentially as described by Bryant, H. U., et al., Life Sciences (1996) 59(15), 1259-1268.

[5] = target: T3, 5HT2C receptors; assay: Human 5-HT2C functional assay in 1321N1 cells (intracellular calcium, FLIPR); format: cell-based; design: expressed in transfected cells; host or cells: 1321N1 cells; conditions: 5-HT2c agonist activity, maximum calcium response
Procedure: (ii) Human 5-HT2C Functional Assay in 1321N1 Cells
Functional activity was determined by testing the effect of the compounds on intracellular calcium levels in 1321N1 cells stably transfected with the human 5-HT2C receptor. Cells were seeded into 96-well plates at 50,000 cells/well and grown overnight in tissue culture medium (DMEM with Glutamax I (Invitrogen), containing 10% dFCS, 50 μg/mL Gentamicin, 400 μg/mL Geneticin) at 37° C. and 7% CO2. Growth medium was replaced by medium without dFCS for overnight incubation. Cells were loaded with a fluorescent calcium-sensitive dye in the presence of 1% probenicid according to the manufacturer's protocol (Fluo4 AM, Molecular Devices). Serial compound dilutions (final concentrations 10^−10 to 10^−5 M) were added to the cells either alone or in the presence of serotonin (10^−9 M) and the maximum calcium response was determined using a FLIPR instrument (Molecular Devices). Concentration-response curves were fitted using a four-parameter logistic equation (GraphPad Prism). The concentration at which the compound exerts half its maximal effect is named the ‘effective concentration 50’ or ‘EC50’ and is listed in Table 2.

[6] = HEK293 membranes expressing h-5-HT6 receptor, 1 nM [3H]-LSD, geometrical mean, read-out: Ki (5-HT6 Agonist Site Radioligand Binding)

T1 sequence (P41595 whole entry): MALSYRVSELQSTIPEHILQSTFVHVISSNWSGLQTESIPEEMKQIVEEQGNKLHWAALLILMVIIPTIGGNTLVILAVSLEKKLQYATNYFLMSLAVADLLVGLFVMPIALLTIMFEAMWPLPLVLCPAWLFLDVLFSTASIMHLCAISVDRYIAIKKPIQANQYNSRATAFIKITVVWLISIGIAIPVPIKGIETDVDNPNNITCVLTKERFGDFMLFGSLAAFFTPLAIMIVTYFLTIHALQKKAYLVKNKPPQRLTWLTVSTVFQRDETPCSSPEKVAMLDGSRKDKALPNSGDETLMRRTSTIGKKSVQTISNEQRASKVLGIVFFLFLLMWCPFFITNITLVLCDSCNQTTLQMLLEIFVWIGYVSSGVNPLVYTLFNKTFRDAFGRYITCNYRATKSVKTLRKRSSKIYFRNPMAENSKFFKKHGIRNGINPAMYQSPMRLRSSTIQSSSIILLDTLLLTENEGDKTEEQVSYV

Row | Compound | Ki [2, 6] | EC50 [5] | also measured
1 | O=S(=O)(c1cccc(F)c1)N1Cc2ccccc2[C@@H]2CNC[C@H]2C1 (relative stereo) [Example 54, Trans-5-(3-fluorophenylsulfonyl)-1,2,3,3a,4,5,6,10b-octahyrobenzo[c]pyrrolo[3,4-e]azepine] | – | 13.2 nM | Ki [4]: 9.1 nM; Ki [2]: 121 nM
2 | Trans-2-benzyl-5-(2-dichlorophenylsulfonyl)-1,2,3,3a,4,5,6,10b-octahydrobenzo[c]pyrrolo[3,4-e]azepine [Example 19] | 14.1 nM | – | –
3 | O=S(=O)(c1cc(Cl)ccc1Cl)N1Cc2ccccc2[C@@H]2CN(Cc3ccccc3)C[C@H]2C1 (relative stereo) [Example 10, Trans-2-benzyl-5-(2,5-dichlorophenylsulfonyl)-1,2,3,3a,4,5,6,10b-octahydrobenzo[c]pyrrolo[3,4-e]azepine] | 174 nM | – | –
4 | CN1C[C@H]2CN(S(=O)(=O)c3ccccc3)Cc3ccccc3[C@@H]2C1 (relative stereo) [Example 71, Trans-2-methyl-5-(phenylsulfonyl)-1,2,3,3a,4,5,6,10b-octahydrobenzo[e]pyrrolo[3,4-e]azepine] | – | 14.2 nM | Ki [4]: 15 nM; Ki [2]: 4.42 nM
5 | CN1C[C@H]2CN(S(=O)(=O)c3ccccc3)Cc3ccccc3[C@H]2C1 (relative stereo) [Example 72, Cis-2-methyl-5-(phenylsulfonyl)-1,2,3,3a,4,5,6,10b-octahydrobenzo[c]pyrrolo[3,4-e]azepine] | – | 51.9 nM | Ki [4]: 65 nM; Ki [2]: 71.7 nM
6 | O=S(=O)(c1cccc2ccccc12)N1Cc2ccccc2[C@@H]2CN(Cc3ccccc3)C[C@H]2C1 (relative stereo) [Example 13, Trans-2-benzyl-5-(naphthalen-1-ylsulfonyl)-1,2,3,3a,4,5,6,10b-octahydrobenzo[c]pyrrolo[3,4-e]azepine] | 37.5 nM | – | –
7 | O=S(=O)(c1ccccc1Br)N1Cc2ccccc2[C@@H]2CN(Cc3ccccc3)C[C@H]2C1 (relative stereo) [Example 11, Trans-2-benzyl-5-(2-bromophenylsulfonyl)-1,2,3,3a,4,5,6,10b-octahydrobenzo[c]pyrrolo[3,4-e]azepine] | 40.3 nM | – | –
8 | N#Cc1ccccc1S(=O)(=O)N1Cc2ccccc2[C@@H]2CN(Cc3ccccc3)C[C@H]2C1 (relative stereo) [Example 21, Trans-2-benzyl-5-(2-cyanophenylsulfonyl)-1,2,3,3a,4,5,6,10b-octahydrobenzo[c]pyrrolo[3,4-e]azepine] | 36.1 nM | – | –

The next lines start with results.

Row | Ki [2, 6] | Compound | EC50 [5] | also measured
9 | 3180 nM | CN1C[C@H]2CNC(=O)c3cc(OCc4cccc(F)c4)ccc3[C@@H]2C1 (relative stereo) [Example 217, Trans-8-(3-fluorobenzyloxy)-2-methyl-1,2,3,3a,4,5-hexahydrobenzo[c]pyrrolo[3,4-e]azepin-6(10bH)-one] | – | EC50 ([1]; 5-HT2B agonist activity, CHO-K1 cells, calcium flux, read-out: EC50): > 10000 nM; Emax ([1]; 5-HT2B, maximum functional response as percentage relative to the effect of serotonin): inactive; EC50 ([3]; 5-HT2C agonist activity, CHO-K1 cells, calcium flux, read-out: EC50): 2 nM; Emax ([3]; CHO-K1, 5-HT2C, maximum functional response as percentage relative to the effect of serotonin, read-out: Emax): 120%
10 | 17.1 nM | O=S(=O)(c1cccc(Cl)c1Cl)N1Cc2ccccc2[C@@H]2CN(Cc3ccccc3)C[C@H]2C1 (relative stereo) [Example 9, Trans-2-benzyl-5-(2,3-dichlorophenylsulfonyl)-1,2,3,3a,4,5,6,10b-octahydrobenzo[c]pyrrolo[3,4-e]azepine] | > 10000 nM | –
11 | 55.1 nM | Cc1ccc(C)c(S(=O)(=O)N2Cc3ccccc3[C@@H]3CN(Cc4ccccc4)C[C@H]3C2)c1 (relative stereo) [Example 17, Trans-2-benzyl-5-(2,5-dimethylphenylsulfonyl)-1,2,3,3a,4,5,6,10b-octahydrobenzo[c]pyrrolo[3,4-e]azepine] | – | –
12 | 23.1 nM | COc1cccc(S(=O)(=O)N2Cc3ccccc3[C@@H]3CN(Cc4ccccc4)C[C@H]3C2)c1 (relative stereo) [Example 18, Trans-2-benzyl-5-(3-methoxyphenylsulfonyl)-1,2,3,3a,4,5,6,10b-octahydrobenzo[c]pyrrolo[3,4-e]azepine] | – | –
13 | 490 nM | COc1ccc(OC)c(S(=O)(=O)N2Cc3ccccc3[C@@H]3CN(Cc4ccccc4)C[C@H]3C2)c1 (relative stereo) [Example 15, Trans-2-benzyl-5-(2,5-dimethoxyphenylsulfonyl)-1,2,3,3a,4,5,6,10b-octahydrobenzo[c]pyrrolo[3,4-e]azepine] | – | –
